# ChEMBL document CHEMBL5715954, “Silencing c-Myc translation as a therapeutic strategy through targeting PI3Kδ and CK1ε in hematological malignancies” (Blood, 2017)
# How the values were obtained:
# Design in all cases: scale not given: the % may be the effect or the level left
# [1] = biological target: T1, Ephrin type-B receptor 1 (Homo sapiens) (UniProt P54762); assay: Inhibition of human EPHB1 assessed as enzyme activity at 1 uM using poly[Glu:Tyr] (4:1) as substrate preincubated for 20 mins followed by [gamma-33P]-ATP addition and measured after 120 mins by radiometric Hot-SpotSM Kinase assay relative to control
# T1 sequence (whole entry): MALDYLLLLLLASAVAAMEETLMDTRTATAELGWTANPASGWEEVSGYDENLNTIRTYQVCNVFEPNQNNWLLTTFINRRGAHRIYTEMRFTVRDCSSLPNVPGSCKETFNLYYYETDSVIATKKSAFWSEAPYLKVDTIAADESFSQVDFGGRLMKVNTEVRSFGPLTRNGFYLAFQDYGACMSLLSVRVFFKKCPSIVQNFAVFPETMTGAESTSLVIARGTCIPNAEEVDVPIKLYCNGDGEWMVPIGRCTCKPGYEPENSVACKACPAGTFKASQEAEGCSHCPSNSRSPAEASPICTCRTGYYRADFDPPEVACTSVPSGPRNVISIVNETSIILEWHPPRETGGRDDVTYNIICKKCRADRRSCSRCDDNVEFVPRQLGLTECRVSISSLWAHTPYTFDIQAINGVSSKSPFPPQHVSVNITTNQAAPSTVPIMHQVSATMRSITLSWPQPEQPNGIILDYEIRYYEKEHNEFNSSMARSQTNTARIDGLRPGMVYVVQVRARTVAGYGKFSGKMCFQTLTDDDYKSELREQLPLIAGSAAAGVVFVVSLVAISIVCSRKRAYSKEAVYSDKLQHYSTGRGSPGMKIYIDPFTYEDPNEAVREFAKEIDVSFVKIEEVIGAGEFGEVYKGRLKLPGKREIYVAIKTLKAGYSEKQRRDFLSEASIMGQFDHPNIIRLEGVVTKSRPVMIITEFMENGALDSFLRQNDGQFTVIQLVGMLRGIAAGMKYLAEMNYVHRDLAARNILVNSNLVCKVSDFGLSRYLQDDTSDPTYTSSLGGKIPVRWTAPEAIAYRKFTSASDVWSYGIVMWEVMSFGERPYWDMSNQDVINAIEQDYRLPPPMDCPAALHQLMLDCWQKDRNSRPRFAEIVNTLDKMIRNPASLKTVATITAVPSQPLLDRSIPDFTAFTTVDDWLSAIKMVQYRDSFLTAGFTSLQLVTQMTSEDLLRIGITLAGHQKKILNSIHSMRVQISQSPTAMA
# [2] = biological target: Protein kinase C delta type (Homo sapiens) (UniProt Q05655); assay: Inhibition of human PKCd assessed as enzyme activity at 1 uM using ERMRPRKRQGSVRRRV as substrate preincubated for 20 mins followed by [gamma-33P]-ATP addition and measured after 120 mins by radiometric Hot-SpotSM Kinase assay relative to control
# Sequence of Protein kinase C delta type (Homo sapiens) (Q05655 whole entry, looked up): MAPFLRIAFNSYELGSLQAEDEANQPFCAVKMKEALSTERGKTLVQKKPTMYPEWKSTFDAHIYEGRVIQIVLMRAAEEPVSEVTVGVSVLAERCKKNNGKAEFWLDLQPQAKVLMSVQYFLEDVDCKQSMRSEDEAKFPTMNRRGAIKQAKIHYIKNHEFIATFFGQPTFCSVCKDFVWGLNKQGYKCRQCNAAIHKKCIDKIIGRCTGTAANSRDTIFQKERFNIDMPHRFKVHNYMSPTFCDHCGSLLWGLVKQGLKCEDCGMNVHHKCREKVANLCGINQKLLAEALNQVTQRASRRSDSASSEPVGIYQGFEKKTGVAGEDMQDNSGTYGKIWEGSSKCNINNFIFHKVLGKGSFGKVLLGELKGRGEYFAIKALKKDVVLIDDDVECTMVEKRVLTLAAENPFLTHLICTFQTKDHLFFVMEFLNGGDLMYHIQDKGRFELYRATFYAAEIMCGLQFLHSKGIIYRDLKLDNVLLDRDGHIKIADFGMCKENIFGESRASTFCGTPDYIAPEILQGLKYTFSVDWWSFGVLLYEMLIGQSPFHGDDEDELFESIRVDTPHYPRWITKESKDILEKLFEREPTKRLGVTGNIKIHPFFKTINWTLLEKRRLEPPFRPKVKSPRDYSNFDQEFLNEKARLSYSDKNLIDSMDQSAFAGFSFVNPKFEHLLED
# [3] = biological target: Death-associated protein kinase 2 (Homo sapiens) (UniProt Q9UIK4); assay: Inhibition of human DAPK2 assessed as enzyme activity at 1 uM using KKLNRTLSFAEPG as substrate preincubated for 20 mins followed by [gamma-33P]-ATP addition and measured after 120 mins by radiometric Hot-SpotSM Kinase assay relative to control
# Sequence of Death-associated protein kinase 2 (Homo sapiens) (Q9UIK4 whole entry, looked up): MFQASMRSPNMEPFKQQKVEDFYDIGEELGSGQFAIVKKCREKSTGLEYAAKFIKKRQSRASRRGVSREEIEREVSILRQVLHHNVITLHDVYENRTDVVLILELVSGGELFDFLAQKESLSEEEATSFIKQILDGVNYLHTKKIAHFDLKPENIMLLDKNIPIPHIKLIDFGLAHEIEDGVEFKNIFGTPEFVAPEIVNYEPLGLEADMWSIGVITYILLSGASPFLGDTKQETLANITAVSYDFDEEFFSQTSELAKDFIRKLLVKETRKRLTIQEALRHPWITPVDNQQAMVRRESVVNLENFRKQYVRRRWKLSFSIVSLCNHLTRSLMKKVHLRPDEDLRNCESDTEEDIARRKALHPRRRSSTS
# [4] = biological target: T2, Bone morphogenetic protein receptor type-2 (Homo sapiens) (UniProt Q13873); assay: Inhibition of human BMPR2 assessed as enzyme activity at 1 uM using myelin basic protein as substrate preincubated for 20 mins followed by [gamma-33P]-ATP addition and measured after 120 mins by radiometric Hot-SpotSM Kinase assay relative to control
# T2 sequence (whole entry): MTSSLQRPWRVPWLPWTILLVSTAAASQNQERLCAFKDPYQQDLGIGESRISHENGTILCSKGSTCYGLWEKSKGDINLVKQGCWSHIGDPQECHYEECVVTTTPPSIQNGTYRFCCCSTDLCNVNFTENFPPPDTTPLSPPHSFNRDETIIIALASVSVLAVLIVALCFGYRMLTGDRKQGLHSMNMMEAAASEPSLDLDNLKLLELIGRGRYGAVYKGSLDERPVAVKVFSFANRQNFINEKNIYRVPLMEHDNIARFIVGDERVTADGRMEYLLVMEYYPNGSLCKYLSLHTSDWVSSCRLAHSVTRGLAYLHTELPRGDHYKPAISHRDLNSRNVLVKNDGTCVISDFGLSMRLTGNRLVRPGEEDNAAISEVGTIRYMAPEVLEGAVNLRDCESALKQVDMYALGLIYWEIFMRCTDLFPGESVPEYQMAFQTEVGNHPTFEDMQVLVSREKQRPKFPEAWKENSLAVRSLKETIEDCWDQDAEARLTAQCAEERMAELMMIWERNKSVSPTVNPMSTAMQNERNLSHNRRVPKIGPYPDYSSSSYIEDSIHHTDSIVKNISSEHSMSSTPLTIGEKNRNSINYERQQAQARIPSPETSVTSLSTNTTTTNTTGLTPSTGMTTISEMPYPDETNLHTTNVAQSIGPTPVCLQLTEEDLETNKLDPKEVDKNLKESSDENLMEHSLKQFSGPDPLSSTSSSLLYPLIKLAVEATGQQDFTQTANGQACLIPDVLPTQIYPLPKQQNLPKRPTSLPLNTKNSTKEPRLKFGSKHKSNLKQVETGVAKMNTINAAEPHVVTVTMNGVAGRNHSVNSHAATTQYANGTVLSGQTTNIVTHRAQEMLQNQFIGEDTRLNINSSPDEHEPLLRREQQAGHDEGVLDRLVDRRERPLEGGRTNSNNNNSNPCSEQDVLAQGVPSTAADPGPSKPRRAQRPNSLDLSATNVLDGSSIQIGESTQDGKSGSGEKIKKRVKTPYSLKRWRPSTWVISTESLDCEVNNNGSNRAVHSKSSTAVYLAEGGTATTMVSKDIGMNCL
# [5] = biological target: G protein-coupled receptor kinase 5 (Homo sapiens) (UniProt P34947); assay: Inhibition of human GRK5 assessed as enzyme activity at 1 uM using casein as substrate preincubated for 20 mins followed by [gamma-33P]-ATP addition and measured after 120 mins by radiometric Hot-SpotSM Kinase assay relative to control
# Sequence of G protein-coupled receptor kinase 5 (Homo sapiens) (P34947 whole entry, looked up): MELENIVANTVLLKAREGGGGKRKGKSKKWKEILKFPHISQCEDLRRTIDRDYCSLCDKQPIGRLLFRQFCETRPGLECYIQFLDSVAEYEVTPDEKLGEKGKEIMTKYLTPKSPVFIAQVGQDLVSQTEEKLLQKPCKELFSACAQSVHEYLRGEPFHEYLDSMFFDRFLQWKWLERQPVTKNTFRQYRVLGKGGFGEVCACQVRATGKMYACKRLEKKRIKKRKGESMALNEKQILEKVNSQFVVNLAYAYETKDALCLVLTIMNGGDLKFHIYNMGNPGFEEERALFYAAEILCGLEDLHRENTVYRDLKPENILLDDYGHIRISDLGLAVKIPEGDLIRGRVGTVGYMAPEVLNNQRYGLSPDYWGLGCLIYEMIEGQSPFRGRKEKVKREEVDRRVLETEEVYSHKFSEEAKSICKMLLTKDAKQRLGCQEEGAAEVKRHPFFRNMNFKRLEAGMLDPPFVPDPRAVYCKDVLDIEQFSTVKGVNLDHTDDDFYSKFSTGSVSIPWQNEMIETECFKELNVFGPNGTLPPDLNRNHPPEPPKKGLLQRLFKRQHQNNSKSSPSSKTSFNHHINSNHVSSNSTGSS
# [6] = biological target: Ephrin type-A receptor 7 (Homo sapiens) (UniProt Q15375); assay: Inhibition of human EPHA7 assessed as enzyme activity at 1 uM using poly[Glu:Tyr] (4:1) as substrate preincubated for 20 mins followed by [gamma-33P]-ATP addition and measured after 120 mins by radiometric Hot-SpotSM Kinase assay relative to control
# Sequence of Ephrin type-A receptor 7 (Homo sapiens) (Q15375 28-998 limits assumed): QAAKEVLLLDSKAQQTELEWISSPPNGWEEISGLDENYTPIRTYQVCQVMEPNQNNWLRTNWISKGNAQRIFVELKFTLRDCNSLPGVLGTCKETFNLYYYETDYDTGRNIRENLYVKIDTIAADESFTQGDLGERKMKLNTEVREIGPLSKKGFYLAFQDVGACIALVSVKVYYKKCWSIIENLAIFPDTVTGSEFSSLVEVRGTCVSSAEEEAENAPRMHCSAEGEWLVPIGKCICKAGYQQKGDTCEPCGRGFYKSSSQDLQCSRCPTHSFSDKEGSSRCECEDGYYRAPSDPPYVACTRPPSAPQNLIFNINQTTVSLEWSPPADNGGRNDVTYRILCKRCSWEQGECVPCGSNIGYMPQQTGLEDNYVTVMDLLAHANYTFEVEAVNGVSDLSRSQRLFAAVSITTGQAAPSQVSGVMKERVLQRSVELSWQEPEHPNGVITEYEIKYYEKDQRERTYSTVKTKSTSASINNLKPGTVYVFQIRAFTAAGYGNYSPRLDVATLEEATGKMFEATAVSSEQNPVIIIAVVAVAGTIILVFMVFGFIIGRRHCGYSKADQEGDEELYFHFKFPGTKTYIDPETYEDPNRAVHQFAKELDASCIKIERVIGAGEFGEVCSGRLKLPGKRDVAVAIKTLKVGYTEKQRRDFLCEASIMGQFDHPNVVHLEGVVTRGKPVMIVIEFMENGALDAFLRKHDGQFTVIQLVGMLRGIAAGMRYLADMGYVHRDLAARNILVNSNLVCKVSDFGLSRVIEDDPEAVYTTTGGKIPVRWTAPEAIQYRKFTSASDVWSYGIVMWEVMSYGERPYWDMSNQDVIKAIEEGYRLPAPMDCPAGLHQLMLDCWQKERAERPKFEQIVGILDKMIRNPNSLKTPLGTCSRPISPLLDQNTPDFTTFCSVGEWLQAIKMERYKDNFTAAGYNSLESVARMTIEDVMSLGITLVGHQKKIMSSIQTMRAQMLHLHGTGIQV
SMILES,Activity [1],Activity [2],Activity [3],Activity [4],Activity [5],Activity [6]
C[C@H](Nc1ncnc2nc[nH]c12)c1cc2cccc(Cl)c2c(=O)n1-c1ccccc1,93.4%,93.9%,103%,103%,106%,93.4%
CC[C@H](Nc1ncnc2[nH]cnc12)c1nc2cccc(F)c2c(=O)n1-c1ccccc1,90.6%,95.2%,106%,107%,104%,89.7%
CC(C)Oc1ccc(-c2nn([C@@H](C)c3oc4ccc(F)cc4c(=O)c3-c3cccc(F)c3)c3ncnc(N)c23)cc1F [UMBRALISIB],95.5%,104%,97.9%,107%,111%,88.7%
